{"source": "paper PMC4166484", "about": "(European journal of medicinal chemistry, 2011)", "key": {"[1]": {"tested_on": "SKBR-3 breast cancer cell", "assay": "MTT cell viability, SKBR-3 breast cancer cell growth", "assay_type": "cell-based"}, "SKBR-3 cells": {"tested_on": "SKBR-3 cells", "assay": "Cell cycle distribution by FACS", "assay_type": "cell-based", "details": "SKBR-3, 0.5 μM and 5 μM, after 12h"}, "[2]": {"tested_on": "60 human tumor cell lines", "assay": "NCI DTP screen against 60 human tumor cell lines", "assay_type": "cell-based", "details": "read-out: IC50s, growth of a broad range of cancer cell lines"}, "[3]": {"assay": "Pharmacokinetic study, intraperitoneal", "assay_type": "in vivo, Sprague-Dawley rats", "details": "male, Sprague-Dawley, rat, plasma, ip, 20 mg/kg"}, "A498": {"tested_on": "A498", "assay_type": "cell-based", "details": "Homo sapiens, A498, 48 h"}}, "note": "Read-outs that look alike come from different tables or passages of the source.", "data": [{"compound": "Cc1ccc(C)c(COc2cc(NC(=O)Cc3ccccc3)ccc2N(C)S(C)(=O)=O)c1", "note": "[Compound 24, N-[3-(2,5-Dimethyl-benzyloxy)-4-(methanesulfonyl-methyl-amino)-phenyl]-2-phenyl-acetamide]", "values": [{"measurement": "IC50", "setting": "[1]; read-out: IC50 against SKBR-3 breast cancer cell growth, 48h treatment, MTT assay, six replicates", "value": "> 30", "unit": "µM"}]}, {"compound": "Cc1ccc(C)c(COc2cc(NC(=O)c3ccc4c(c3)OCO4)ccc2N(C)S(C)(=O)=O)c1", "note": "[Compound 10, Benzo[1,3]dioxole-5-carboxylic acid [3-(2,5-dimethyl-benzyloxy)-4-(methanesulfonyl-methyl-amino)-phenyl]-amide]", "values": [{"measurement": "cell cycle effect", "setting": "SKBR-3 cells", "value": "accumulated at G2/M and subG1 phase"}, {"measurement": "IC50", "setting": "[2]", "value": "0.2 to 0.5", "unit": "µM"}, {"measurement": "AUC(0-t)", "setting": "[3]; Rat 2, 20mg/kg i.p.", "value": 22600, "unit": "ng·h/mL"}, {"measurement": "AUC(0-t)", "setting": "[3]; Rat 3, 20mg/kg i.p.", "value": 9720, "unit": "ng·h/mL"}, {"measurement": "MRT last", "setting": "[3]; MRT(0-t), Rat 3, 20mg/kg i.p.", "value": 5.62, "unit": "h"}, {"measurement": "half-life", "setting": "[3]; T1/2, Rat 1, 20mg/kg i.p.", "value": 2.44, "unit": "h"}, {"measurement": "half-life", "setting": "[3]; T1/2, Rat 2, 20mg/kg i.p.", "value": 3.71, "unit": "h"}, {"measurement": "half-life", "setting": "[3]; T1/2, Rat 3, 20mg/kg i.p.", "value": 3.21, "unit": "h"}, {"measurement": "GI50", "setting": "A498", "value": 0.122, "unit": "µM"}]}, {"compound": "COc1ccc(CC(=O)Nc2ccc(N(C)S(C)(=O)=O)c(OCc3cc(C)ccc3C)c2)cc1OC", "note": "[Compound 17, N-[3-(2,5-Dimethyl-benzyloxy)-4-(methanesulfonyl-methyl-amino)-phenyl]-(3,4-dimethoxyphenyl)-acetamide]", "values": [{"measurement": "IC50", "setting": "[1]; Homo sapiens, SK-BR-3, 48 h, read-out: IC50 against SKBR-3 breast cancer cell growth, 48h treatment, MTT assay, six replicates", "value": "> 30", "unit": "µM"}]}]}
